In patent US20250382270A1, “3-DIARYLMETHYLENES AND USES THEREOF” (Atux Iskay LLC, priority 2020, published 2025):

Tested on: A549 cells
Assay: A549 cell growth inhibition assay (alamarBlue)
Assay type: cell-based
Conditions: Homo sapiens, 72 hours treatment, alamarBlue fluorescence
Procedure: Example compounds 1a, 2, 4 and 6 were assayed in an A549 cell growth inhibition assay as follows. A549 cells were cultured in DMEM medium with supplement of 10% FBS and 1% Pen-strep. Assay conditions: to perform the proliferation assay, A549 cells were seeded at 5000 cells/90 μl growth medium/well on 96-well black clear-bottom tissue culture plate. Cells were incubated at 37° C. and 5% CO2 overnight to allow them to recover and reattach. Next day cells were treated with tested compounds for 72 hours. After treatment, cell proliferation was measured by Fluorescent quantitation of alamarBlue reagent. The alamarBlue assay incorporates a fluorometric/colorimetric growth indicator based on detection of metabolic activity. Specifically, resazurin, the active ingredient of alamarBlue reagent, is blue in color and virtually non-fluorescent. Upon entering cells, resazurin is reduced to resorufin, a compound that is red in color and highly fluorescent. Continued cell growth maintains a reduced environment, therefore increasing the overall fluorescence and color of the media surrounding cells. Our experiment has shown that the fluorescence intensity of alamarBlue reagent was directly proportional to cell number. To perform the alamarBlue assay, 10 μl of alamarBlue reagent was added to each well and the plate was incubated at 37° C. for an additional 1-4 hours. Fluorescence intensity was measured at an excitation of 530 nm and an emission of 590 nm using a BioTek Synergy™ 2 microplate reader.
Data analysis. Cell proliferation assays in triplicate were performed at each concentration. The fluorescent intensity data were analyzed using the computer software, Graphpad Prism. In the absence of the compound, the fluorescent intensity (Ft) in each data set was defined as 100%. In the absence of cells, the fluorescent intensity (Fb) in each data set was defined as 0%. The percent cell in the presence of each compound was calculated according to the following equation: % cell=(F-Fb)/(Ft-Fb), where F=the fluorescent intensity in the presence of the compound, Fb=the fluorescent intensity in the absence of cells, and Ft=the fluorescent intensity in the absence of the compound. The values of % cell versus a series of compound concentrations were then plotted using non-linear regression analysis of Sigmoidal dose-response curve generated with the equation Y=B+(T-B)/1+10^((LogEC50-X)×Hill Slope), where Y=percent cell, B=minimum percent cell, T=maximum percent cell, X=logarithm of compound and Hill Slope=slope factor or Hill coefficient. The IC50 value was determined by the concentration causing a half-maximal percent activity.

| Structure (SMILES) | IC50 [µM] |
| --- | --- |
| O=S(=O)(Nc1ccc(Cl)cc1)N1CCCC(C(c2ccc(F)cc2)c2ccc(F)cc2)C1 (centres unmarked) [Example 6, 3-(bis(4-fluorophenyl)methyl)-N-(4-chlorophenyl)piperidine-1-sulfonamide] | 12.8 |
| COc1cccc2c1C(=O)c1c(O)c3c(c(O)c1C2=O)C[C@@](O)(C(=O)CO)C[C@@H]3O[C@H]1C[C@H](N)[C@H](O)[C@H](C)O1 [Doxorubicin, reference compound] | 0.34 |
| O=S(=O)(Nc1ccccc1)N1CCCC(C(c2ccc(F)cc2)c2ccc(F)cc2)C1 (centres unmarked) [Example 2, 3-(bis(4-fluorophenyl)methyl)-N-phenylpiperidine-1-sulfonamide] | 22.9 |

Other lines, results leading:

| IC50 [µM] | Structure (SMILES) |
| --- | --- |
| 8.27 | O=S(=O)(Nc1ccc(OC(F)(F)F)cc1)N1CCCC(C(c2ccc(F)cc2)c2ccc(F)cc2)C1 (centres unmarked) [Example 1a, 3-(bis(4-fluorophenyl)methyl)-N-(4-(trifluoromethoxy)phenyl)piperidine-1-sulfonamide] |
| 9.61 | O=S(=O)(Nc1ccc(C(F)(F)F)cc1)N1CCCC(C(c2ccc(F)cc2)c2ccc(F)cc2)C1 (centres unmarked) [Example 4, 3-(bis(4-fluorophenyl)methyl)-N-(4-(trifluoromethyl)phenyl)piperidine-1-sulfonamide] |

Tested on: A172 glioblastoma cells
Assay: A172 cell growth inhibition assay (CellTiter-Glo)
Assay type: cell-based
Conditions: Homo sapiens, A 172, 48-72 hours treatment, CellTiter-Glo luminescence, test range 1-30 μM
Procedure: Compounds were also assayed in an A172 cell growth inhibition assay as follows. A172 glioblastoma cells were cultured in Dulbecco's modified Eagle's medium (DMEM) supplemented with 10% fetal bovine serum and 1% Penicillin-streptomycin. Incubation was performed at 37° C. and 5% CO2.
A172 cells were seeded at 3000-3500 cells/90 ul growth medium per well on 96-well tissue culture plates. Cells were incubated overnight to allow them to recover and reattach. Next day cells were treated with tested compounds and incubated for 48-72 hours.
Cell Proliferation assays in triplicate were performed at each concentration. Compounds test range was 1-30 μM (0, 5, 10, 15, 20, 25, and 30). The compounds were dissolved in DMSO. A series of dilutions were made in 1% DMSO in growth medium so that the final concentration of DMSO is 0.1% in all of treatments.
After treatment, cells were allowed to equilibrate at room temperature for ½ to one hour. Cell proliferation was measured by Luminescence quantification using Promega CellTiter-Glo Luminescent Cell Viability Assay. To perform the assay, 100 μl of Celltiter-Glo substrate was added to each well, plates were shake for 2 minutes and allowed to equilibrate for 10 minutes at room temperature. Luminescence intensity was measured using the Spectramax i3x plate reader.
The Luminescence intensity data were analyzed using the computer software Graphpad Prism. In the absence of the compound, the luminescence intensity (Lr) in each data set was defined as 100% cell viability. The percent cell in the presence of each compound was calculated according to the following equation: […], where L=the luminescence intensity in the presence of the compound.
The values of % cell versus a series of compound concentrations (0, 5, 10, 15, 20, 25, and 30 μM) were then plotted using nonlinear regression analysis of Sigmoidal dose-response curve. IC50 values were determined by the concentration causing a half-maximal percent activity.

| Structure (SMILES) | IC50 [µM] |
| --- | --- |
| O=S(=O)(Nc1ccc(Cl)cc1)N1CCCC(=C(c2ccc(F)cc2)c2ccc(F)cc2)C1 [Example 108] | 16.1 |
| O=S(=O)(Nc1ccccc1)N1CCCC(=C(c2ccc(F)cc2)c2ccc(F)cc2)C1 [Example 110] | 25 |
| O=S(=O)(Nc1ccc(Cl)c(Cl)c1)N1CCCC(C(c2ccc(F)cc2)c2ccc(F)cc2)C1 (centres unmarked) [Example 100] | 16.2 |
| O=S(=O)(Nc1ccc(Cl)c(Cl)c1)N1CCOC(C(c2ccc(F)cc2)c2ccc(F)cc2)C1 (centres unmarked) [Example 93] | 45 |
| O=S(=O)(Nc1cc(Cl)cc(Cl)c1)N1CCOC(C(c2ccc(F)cc2)c2ccc(F)cc2)C1 (centres unmarked) [Example 94] | 23.2 |
| O=S(=O)(Nc1ccc(Cl)cc1)N1CCOC(C(c2ccc(F)cc2)c2ccc(F)cc2)C1 (centres unmarked) [Example 25] | 19.4 |
| O=S(=O)(Nc1cccc(C(F)(F)F)c1)N1CCCC(=C(c2ccc(F)cc2)c2ccc(F)cc2)C1 [Example 111] | 30 |
| O=S(=O)(Nc1cccc(C(F)(F)F)c1)N1CCOC(C(c2ccc(F)cc2)c2ccc(F)cc2)C1 (centres unmarked) [Example 102] | 20.6 |
| CC(C)(C)OC(=O)Nc1ccc(NS(=O)(=O)N2CCCC(C(c3ccc(F)cc3)c3ccc(F)cc3)C2)cc1 (centres unmarked) [Example 103] | 10.3 |
| O=S(=O)(Nc1cccc(Cl)c1)N1CCOC(C(c2ccc(F)cc2)c2ccc(F)cc2)C1 (centres unmarked) [Example 26] | 28.2 |
| O=S(=O)(Nc1ccccc1)N1CCCC(C(c2ccc(F)cc2)c2ccc(F)cc2)C1 (centres unmarked) [Example 2, 3-(bis(4-fluorophenyl)methyl)-N-phenylpiperidine-1-sulfonamide] | 23 |
| O=S(=O)(NCc1ccc(F)cc1)N1CCOC(C(c2ccc(F)cc2)c2ccc(F)cc2)C1 (centres unmarked) [Example 97] | 27.2 |

Further lines, results first:

| IC50 [µM] | Structure (SMILES) |
| --- | --- |
| 12.1 | O=S(=O)(Nc1ccc(OC(F)(F)F)cc1)N1CCCC(C(c2ccc(F)cc2)c2ccc(F)cc2)C1 (centres unmarked) [Example 1a, 3-(bis(4-fluorophenyl)methyl)-N-(4-(trifluoromethoxy)phenyl)piperidine-1-sulfonamide] |
| 20.3 | O=S(=O)(Nc1ccc(OC(F)(F)F)cc1)N1CCCC(=C(c2ccccc2)c2ccccc2)C1 [Example 105] |
| 19.2 | O=S(=O)(Nc1ccc(C(F)(F)F)cc1)N1CCCC(=C(c2ccc(F)cc2)c2ccc(F)cc2)C1 [Example 109] |
| 17.1 | O=S(=O)(Nc1ccc(C(F)(F)F)cc1)N1CCCC(C(c2ccc(F)cc2)c2ccc(F)cc2)C1 (centres unmarked) [Example 4, 3-(bis(4-fluorophenyl)methyl)-N-(4-(trifluoromethyl)phenyl)piperidine-1-sulfonamide] |
| 11 | O=S(=O)(Nc1ccc(OC(F)(F)F)cc1)N1CCCC(C2c3ccccc3CCc3ccccc32)C1 (centres unmarked) [Example 37] |
| 24 | O=S(=O)(Nc1cccc(OC(F)(F)F)c1)N1CCCC(=C(c2ccc(F)cc2)c2ccc(F)cc2)C1 [Example 112] |
| 10.8 | O=S(=O)(Nc1cccc(OC(F)(F)F)c1)N1CCCC(C2c3ccccc3CCc3ccccc32)C1 (centres unmarked) [Example 113] |
| 22.1 | O=S(=O)(Nc1cccc(C(F)(F)F)c1)N1CCCC(C(c2ccc(F)cc2)c2ccc(F)cc2)C1 (centres unmarked) [Example 101] |
| 18.2 | O=S(=O)(Nc1ccc(OC(F)(F)F)cc1)N1CCOC(C(c2ccc(F)cc2)c2ccc(F)cc2)C1 (centres unmarked) [Example 19, 2-(bis(4-fluorophenyl)methyl)-N-(4-(trifluoromethoxy)phenyl)morpholine-4-sulfonamide] |
| 16.1 | O=S(=O)(NCc1ccc(F)cc1)N1CCCC(C2c3ccccc3CCc3ccccc32)C1 (centres unmarked) [Example 96] |
| 12.8 | O=S(=O)(Nc1ccc2c(c1)OC(F)(F)O2)N1CCCC(C2c3ccccc3CCc3ccccc32)C1 (centres unmarked) [Example 106] |
| 25.3 | O=S(=O)(Nc1ncc(C(F)(F)F)cn1)N1CCCC(C2c3ccccc3CCc3ccccc32)C1 (centres unmarked) [Example 99] |
| 13 | O=S(=O)(Nc1ccc(OC(F)(F)F)cc1)N1CCCC(C2c3ccc(F)cc3CCc3cc(F)ccc32)C1 (centres unmarked) [Example 71] |
| 15.8 | O=S(=O)(Nc1ccc(C(F)(F)F)cc1)N1CCCC(C2c3ccccc3CCc3ccccc32)C1 (centres unmarked) [Example 40] |
| 10.4 | O=S(=O)(NCc1ccc(C(F)(F)F)cc1)N1CCCC(C2c3ccccc3CCc3ccccc32)C1 (centres unmarked) [Example 98] |
| 26 | O=S(=O)(Nc1ccc(C(F)(F)F)cc1)N1CCOC(C(c2ccc(F)cc2)c2ccc(F)cc2)C1 (centres unmarked) [Example 22] |
| 51 | O=[N+]([O-])c1ccc(NS(=O)(=O)N2CCCC(C3c4ccccc4CCc4ccccc43)C2)cc1 (centres unmarked) [Example 42] |
| 14.8 | O=S(=O)(Nc1ccc(OC(F)(F)F)cc1)N1CCCC(=C(c2ccc(F)cc2)c2ccc(F)cc2)C1 [Example 104] |
